From US7138361B2, “Herbicidal heterocycles” (E. I. du Pont de Nemours and Company, priority 2000, dated 2006)

Tests used:
Type in all cases: in vivo
[1] = test system: Surinam grass (Brachiaria decumbens); test: Test B postemergence
Procedure, shortened: (§1)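 Seeds were planted and sprayed preemergence with test chemical in a non-phytotoxic solvent mixture containing surfactant; postemergence plants (2 to 18 cm, 1- to 4-leaf stage) received the same formulation. Greenhouse hold 13 to 15 days, then visual rating versus untreated controls on a 0–100 scale (0 no effect, 100 complete control).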

[2] = test system: barnyardgrass (Echinochloa crus-galli); test: Test B postemergence
Procedure, shortened: as §1

[3] = test system: blackgrass (Alopecurus myosuroides); test: Test B postemergence
Procedure, shortened: as §1

[4] = test system: cocklebur (Xanthium strumarium); test: Test B postemergence
Procedure, shortened: as §1

corn (Zea mays) [5] = test: Test B postemergence
Procedure, shortened: as §1

[6] = test system: crabgrass (Digitaria sanguinalis); test: Test B postemergence
Procedure, shortened: as §1

[7] = test system: giant foxtail (Setaria faberii); test: Test B postemergence
Procedure, shortened: as §1

[8] = test system: lambsquarters (Chenopodium album); test: Test B postemergence
Procedure, shortened: as §1

[9] = test system: morning glory (Ipomoea hederacea); test: Test B postemergence
Procedure, shortened: as §1

[10] = test system: pigweed (Amaranthus retroflexus); test: Test B postemergence
Procedure, shortened: as §1

[11] = test system: velvetleaf (Abutilon theophrasti); test: Test B postemergence
Procedure, shortened: as §1

[12] = test system: wheat (Triticum aestivum); test: Test B postemergence
Procedure, shortened: as §1

wild oat (Avena fatua) = test: Test B postemergence
Procedure, shortened: as §1

[13] = test system: Surinam grass (Brachiaria decumbens); test: Test B preemergence
Procedure, shortened: as §1

[14] = test system: barnyardgrass (Echinochloa crus-galli); test: Test B preemergence
Procedure, shortened: as §1

[15] = test system: cocklebur (Xanthium strumarium); test: Test B preemergence
Procedure, shortened: as §1

corn (Zea mays) [16] = test: Test B preemergence
Procedure, shortened: as §1

[17] = test system: crabgrass (Digitaria sanguinalis); test: Test B preemergence
Procedure, shortened: as §1

[18] = test system: giant foxtail (Setaria faberii); test: Test B preemergence
Procedure, shortened: as §1

[19] = test system: lambsquarters (Chenopodium album); test: Test B preemergence
Procedure, shortened: as §1

[20] = test system: morning glory (Ipomoea hederacea); test: Test B preemergence
Procedure, shortened: as §1

[21] = test system: pigweed (Amaranthus retroflexus); test: Test B preemergence
Procedure, shortened: as §1

rice (Oryza saliva) = test: Test B preemergence
Procedure, shortened: as §1

[22] = test system: velvetleaf (Abutilon theophrasti); test: Test B preemergence
Procedure, shortened: as §1

[23] = test system: smallflower flatsedge (Cyperus difformis); test: Test C flooded paddy test; conditions: for Flatsedge plant response rating: Flooded Paddy, scale 0 to 100, 0 no effect, 100 complete control; for Plant response rating, Flatsedge: flooded paddy test, scale 0 to 100 (0 no effect, 100 complete control)
Procedure, shortened: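 Response on a 0-to-100 scale (no effect to complete control) was assessed by eye versus controls. Plants had reached 2 leaves when treated in flooded paddy conditions. The assessment took place after 12–14 days of greenhouse growth.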

Sunflower = test: Test C preemergence; conditions: Rate 250 g/ha, scale 0 to 100, 0 no effect, 100 complete control
[24] = Rate 62 g/ha, scale 0 to 100, 0 no effect, 100 complete control
[25] = Rate 125 g/ha, scale 0 (no effect) to 100 (complete control), 13 to 15 days
[26] = Rate 250 g/ha, scale 0 (no effect) to 100 (complete control), 13 to 15 days
[27] = Rate 500 g/ha, scale 0 to 100, 0 is no effect, 100 is complete control, 13 to 15 days
[28] = Preemergence, Rate 500 g/ha, scale 0 to 100, 0 no effect, 100 complete control
[29] = preemergence, Rate 62 g/ha, scale of 0 to 100 where 0 is no effect and 100 is complete control, 13 to 15 days
[30] = preemergence, Rate 125 g/ha, scale of 0 to 100 where 0 is no effect and 100 is complete control, 13 to 15 days
[31] = preemergence, Rate 250 g/ha, scale 0 to 100, 0 no effect, 100 complete control

Cc1ccc(N2CCC(n3ccc(C(C)(C)C)n3)C2=O)cc1OCCCl (centres unmarked) [Compound 109]
Plant response rating, Surinam grass [1, 24]: 0
Plant response rating, Surinam grass [1, 25]: 0
Plant response rating, Surinam grass [1, 26]: 20
Plant response rating, Surinam grass [1, 27]: 0
Plant response rating, Barnyardgrass [2, 24]: 0
Plant response rating, Barnyardgrass [2, 25]: 0
Plant response rating, Barnyardgrass [2, 26]: 0
Plant response rating, Barnyardgrass [2, 27]: 0
Plant response rating, Blackgrass [3, 24]: 0
Plant response rating, Blackgrass [3, 25]: 0
Plant response rating, Blackgrass [3, 26]: 0
Plant response rating, Blackgrass [3, 27]: 0
Plant response rating, Cocklebur [4, 24]: 60
Plant response rating, Cocklebur [4, 25]: 40
Plant response rating, Cocklebur [4, 26]: 70
Plant response rating, Cocklebur [4, 27]: 90
Plant response rating, Corn (corn (Zea mays) [5]; [24]): 0
Plant response rating, Corn (corn (Zea mays) [5]; [25]): 0
Plant response rating, Corn (corn (Zea mays) [5]; [26]): 0
Plant response rating, Corn (corn (Zea mays) [5]; [27]): 0
Plant response rating, Crabgrass [6, 24]: 0
Plant response rating, Crabgrass [6, 25]: 0
Plant response rating, Crabgrass [6, 26]: 0
Plant response rating, Crabgrass [6, 27]: 0
Plant response rating, Foxtail, Giant [7, 24]: 0
Plant response rating, Foxtail, Giant [7, 25]: 0
Plant response rating, Foxtail, Giant [7, 26]: 20
Plant response rating, Foxtail, Giant [7, 27]: 0
Plant response rating, Lambsquarters [8, 24]: 80
Plant response rating, Lambsquarters [8, 26]: 90
Plant response rating, Lambsquarters [8, 27]: 90
Plant response rating, Morningglory [9, 24]: 90
Plant response rating, Morningglory [9, 26]: 100
Plant response rating, Morningglory [9, 27]: 100
Plant response rating, Pigweed [10, 24]: 50
Plant response rating, Pigweed [10, 26]: 60
Plant response rating, Pigweed [10, 27]: 90
Plant response rating, Velvetleaf [11, 24]: 0
Plant response rating, Velvetleaf [11, 26]: 80
Plant response rating, Velvetleaf [11, 27]: 80
Plant response rating, Wheat [12, 24]: 0
Plant response rating, Wheat [12, 26]: 0
Plant response rating, Wheat [12, 27]: 0
Plant response rating, Wild Oat (wild oat (Avena fatua); [24]): 0
Plant response rating, Wild Oat (wild oat (Avena fatua); [26]): 0
Plant response rating, Wild Oat (wild oat (Avena fatua); [27]): 0
Plant response rating, Surinam grass [13, 28]: 100
Plant response rating, Surinam grass [13, 29]: 20
Plant response rating, Surinam grass [13, 30]: 50
Plant response rating, Surinam grass [13, 31]: 90
Plant response rating, Barnyardgrass [14, 28]: 100
Plant response rating, Barnyardgrass [14, 29]: 0
Plant response rating, Barnyardgrass [14, 30]: 30
Plant response rating, Barnyardgrass [14, 31]: 50
Plant response rating, Cocklebur [15, 28]: 0
Plant response rating, Cocklebur [15, 29]: 0
Plant response rating, Cocklebur [15, 30]: 0
Plant response rating, Cocklebur [15, 31]: 0
Plant response rating, Corn (corn (Zea mays) [16]; [28]): 0
Plant response rating, Corn (corn (Zea mays) [16]; [29]): 0
Plant response rating, Corn (corn (Zea mays) [16]; [30]): 0
Plant response rating, Corn (corn (Zea mays) [16]; [31]): 0
Plant response rating, Crabgrass [17, 28]: 100
Plant response rating, Crabgrass [17, 29]: 100
Plant response rating, Crabgrass [17, 30]: 100
Plant response rating, Crabgrass [17, 31]: 100
Plant response rating, Foxtail, Giant [18, 28]: 50
Plant response rating, Foxtail, Giant [18, 29]: 20
Plant response rating, Foxtail, Giant [18, 30]: 0
Plant response rating, Foxtail, Giant [18, 31]: 100
Plant response rating, Lambsquarters [19, 28]: 100
Plant response rating, Lambsquarters [19, 29]: 100
Plant response rating, Lambsquarters [19, 30]: 100
Plant response rating, Lambsquarters [19, 31]: 100
Plant response rating, Morningglory [20, 28]: 0
Plant response rating, Morningglory [20, 29]: 0
Plant response rating, Morningglory [20, 30]: 0
Plant response rating, Morningglory [20, 31]: 0
Plant response rating, Pigweed [21, 28]: 100
Plant response rating, Pigweed [21, 29]: 100
Plant response rating, Pigweed [21, 30]: 100
Plant response rating, Pigweed [21, 31]: 100
Plant response rating, Rice (rice (Oryza saliva); [28]): 0
Plant response rating, Rice (rice (Oryza saliva); [29]): 0
Plant response rating, Rice (rice (Oryza saliva); [30]): 0
Plant response rating, Rice (rice (Oryza saliva); [31]): 0
Plant response rating, Velvetleaf [22, 28]: 70
Plant response rating, Velvetleaf [22, 29]: 0
Plant response rating, Velvetleaf [22, 30]: 0
Plant response rating, Velvetleaf [22, 31]: 60
Flatsedge plant response rating ([23]; Rate 250 g/ha): 80
Flatsedge plant response rating ([23]; Rate 500 g/ha): 100
Plant response rating, Flatsedge ([23]; Rate 62 g/ha): 40
Plant response rating, Flatsedge ([23]; Rate 125 g/ha): 50
Plant response rating, Sunflower (Sunflower): 90
